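Protocol summary: plate cells (96-well), add compound at 5 concentrations, incubate 48 h, interpolate endpoints linearly. GI50 marks 50% less growth. TGI marks complete inhibition of growth.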
What was measured:
Test in all cases: NCI tumour cell line growth inhibition, 48 h
CCRF-CEM leukemia = test system: CCRF-CEM leukemia
TK-10 renal = test system: TK-10 renal
NCI-H23 lung = test system: NCI-H23 lung
ACHN renal = test system: ACHN renal
MALME-3M melanoma = test system: MALME-3M melanoma
SK-MEL-5 melanoma = test system: SK-MEL-5 melanoma
HOP-92 NSCLC = test system: HOP-92 NSCLC
SK-MEL-2 melanoma = test system: SK-MEL-2 melanoma
HCT-116 colon = test system: HCT-116 colon
A549 NSCLC = test system: A549 NSCLC
UACC-62 melanoma = test system: UACC-62 melanoma
OVCAR-3 ovarian = test system: OVCAR-3 ovarian
MDA-MB-435 = test system: MDA-MB-435
HL-60(TB) leukemia = test system: HL-60(TB) leukemia
M14 melanoma = test system: M14 melanoma
LOX IMVI melanoma = test system: LOX IMVI melanoma
KM12 colon = test system: KM12 colon
DU-145 prostate = test system: DU-145 prostate
SNB-75 CNS = test system: SNB-75 CNS
UO-31 renal = test system: UO-31 renal
RPMI-8226 leukemia = test system: RPMI-8226 leukemia
UACC-257 melanoma = test system: UACC-257 melanoma
COLO 205 colon = test system: COLO 205 colon
NCI-H460 lung = test system: NCI-H460 lung
NCI-H522 lung = test system: NCI-H522 lung
HT29 colon = test system: HT29 colon
SF-539 CNS = test system: SF-539 CNS
MCF7 breast = test system: MCF7 breast
HS 578T breast = test system: HS 578T breast
T-47D breast = test system: T-47D breast
BT-549 breast = test system: BT-549 breast
IGROV1 ovarian = test system: IGROV1 ovarian
MDA-MB-231 breast = test system: MDA-MB-231 breast
EKVX NSCLC = test system: EKVX NSCLC
PC-3 prostate = test system: PC-3 prostate
A498 renal = test system: A498 renal
OVCAR-4 ovarian = test system: OVCAR-4 ovarian
NCI-H226 lung = test system: NCI-H226 lung
MDA-MB-468 breast = test system: MDA-MB-468 breast
MOLT-4 leukemia = test system: MOLT-4 leukemia
HOP-62 NSCLC = test system: HOP-62 NSCLC
SF-295 CNS = test system: SF-295 CNS
OVCAR-5 ovarian = test system: OVCAR-5 ovarian
NCI/ADR-RES ovarian = test system: NCI/ADR-RES ovarian
786-0 renal = test system: 786-0 renal
SK-MEL-28 melanoma = test system: SK-MEL-28 melanoma
SR leukemia = test system: SR leukemia
SNB-19 CNS = test system: SNB-19 CNS
CAKI-1 renal = test system: CAKI-1 renal
SW-620 colon = test system: SW-620 colon
OVCAR-8 ovarian = test system: OVCAR-8 ovarian
SF-268 CNS = test system: SF-268 CNS
HCT-15 colon = test system: HCT-15 colon
HCC-2998 colon = test system: HCC-2998 colon
K-562 leukemia = test system: K-562 leukemia
SN12C renal = test system: SN12C renal
SK-OV-3 ovarian = test system: SK-OV-3 ovarian
U251 CNS = test system: U251 CNS

Which results are given for `COC(=O)CCn1c(-c2ccc(-n3cc(-c4ccc(O[C@H]5O[C@@H]6OC7(C)CC[C@H]8[C@H](C)CC[C@@H]([C@H]5C)[C@@]68OO7)cc4)nn3)cc2)nc2ccccc21`?
GI50 (CCRF-CEM leukemia): 0.0517 µM; TGI (CCRF-CEM leukemia): > 9.25 µM; GI50 (TK-10 renal): 0.386 µM; TGI (TK-10 renal): > 9.25 µM; GI50 (NCI-H23 lung): 0.0655 µM; TGI (NCI-H23 lung): 6.49 µM; GI50 (ACHN renal): 0.262 µM; TGI (ACHN renal): 1.36 µM; GI50 (MALME-3M melanoma): 0.175 µM; TGI (MALME-3M melanoma): 5.42 µM; GI50 (SK-MEL-5 melanoma): 0.216 µM; TGI (SK-MEL-5 melanoma): 1.13 µM; GI50 (HOP-92 NSCLC): 0.128 µM; TGI (HOP-92 NSCLC): 0.765 µM; GI50 (SK-MEL-2 melanoma): 0.238 µM; TGI (SK-MEL-2 melanoma): 0.812 µM; GI50 (HCT-116 colon): 0.0343 µM; TGI (HCT-116 colon): > 9.25 µM; GI50 (A549 NSCLC): 0.277 µM; TGI (A549 NSCLC): > 9.25 µM; GI50 (UACC-62 melanoma): 0.135 µM; TGI (UACC-62 melanoma): 1.97 µM; GI50 (OVCAR-3 ovarian): 0.1 µM; TGI (OVCAR-3 ovarian): > 9.25 µM; GI50 (MDA-MB-435): 0.078 µM; TGI (MDA-MB-435): > 9.25 µM; GI50 (HL-60(TB) leukemia): 0.0984 µM; TGI (HL-60(TB) leukemia): 0.572 µM; GI50 (M14 melanoma): 0.36 µM; TGI (M14 melanoma): > 9.25 µM; GI50 (LOX IMVI melanoma): 0.0371 µM; TGI (LOX IMVI melanoma): 0.158 µM; GI50 (KM12 colon): 0.0525 µM; TGI (KM12 colon): > 9.25 µM; GI50 (DU-145 prostate): 0.485 µM; TGI (DU-145 prostate): > 9.25 µM; GI50 (SNB-75 CNS): 0.257 µM; TGI (SNB-75 CNS): > 9.25 µM; GI50 (UO-31 renal): 0.194 µM; TGI (UO-31 renal): 1.05 µM; GI50 (RPMI-8226 leukemia): 0.0427 µM; TGI (RPMI-8226 leukemia): 5.12 µM; GI50 (UACC-257 melanoma): 0.276 µM; TGI (UACC-257 melanoma): > 9.25 µM; GI50 (COLO 205 colon): 0.0685 µM; TGI (COLO 205 colon): > 9.25 µM; GI50 (NCI-H460 lung): 0.274 µM; TGI (NCI-H460 lung): > 9.25 µM; GI50 (NCI-H522 lung): 0.0976 µM; TGI (NCI-H522 lung): 1.29 µM; GI50 (HT29 colon): 0.0753 µM; TGI (HT29 colon): > 9.25 µM; GI50 (SF-539 CNS): 0.197 µM; TGI (SF-539 CNS): > 9.25 µM; GI50 (MCF7 breast): 0.0409 µM; TGI (MCF7 breast): > 9.25 µM; GI50 (HS 578T breast): 0.205 µM; TGI (HS 578T breast): 5.57 µM; GI50 (T-47D breast): 0.0374 µM; TGI (T-47D breast): > 9.25 µM; GI50 (BT-549 breast): 0.127 µM; TGI (BT-549 breast): 0.693 µM; GI50 (IGROV1 ovarian): 0.257 µM; TGI (IGROV1 ovarian): > 9.25 µM; GI50 (MDA-MB-231 breast): 0.208 µM; TGI (MDA-MB-231 breast): 2.42 µM; GI50 (EKVX NSCLC): 0.15 µM; TGI (EKVX NSCLC): > 9.25 µM; GI50 (PC-3 prostate): 0.04 µM; TGI (PC-3 prostate): > 9.25 µM; GI50 (A498 renal): 5.4 µM; TGI (A498 renal): > 9.25 µM; GI50 (OVCAR-4 ovarian): 0.155 µM; TGI (OVCAR-4 ovarian): > 9.25 µM; GI50 (NCI-H226 lung): 0.163 µM; TGI (NCI-H226 lung): 2.3 µM; GI50 (MDA-MB-468 breast): 0.177 µM; TGI (MDA-MB-468 breast): 0.588 µM; GI50 (MOLT-4 leukemia): 0.0377 µM; TGI (MOLT-4 leukemia): 1.62 µM; GI50 (HOP-62 NSCLC): 0.558 µM; TGI (HOP-62 NSCLC): > 9.25 µM; GI50 (SF-295 CNS): 0.223 µM; TGI (SF-295 CNS): > 9.25 µM; GI50 (OVCAR-5 ovarian): 0.134 µM; TGI (OVCAR-5 ovarian): > 9.25 µM; GI50 (NCI/ADR-RES ovarian): 0.307 µM; TGI (NCI/ADR-RES ovarian): > 9.25 µM; GI50 (786-0 renal): 0.33 µM; TGI (786-0 renal): > 9.25 µM; GI50 (SK-MEL-28 melanoma): 0.148 µM; TGI (SK-MEL-28 melanoma): > 9.25 µM; GI50 (SR leukemia): 0.0402 µM; TGI (SR leukemia): 1.14 µM; GI50 (SNB-19 CNS): 0.274 µM; TGI (SNB-19 CNS): > 9.25 µM; GI50 (CAKI-1 renal): 0.333 µM; TGI (CAKI-1 renal): > 9.25 µM; GI50 (SW-620 colon): 0.0438 µM; TGI (SW-620 colon): > 9.25 µM; GI50 (OVCAR-8 ovarian): 0.128 µM; TGI (OVCAR-8 ovarian): > 9.25 µM; GI50 (SF-268 CNS): 0.242 µM; TGI (SF-268 CNS): > 9.25 µM; GI50 (HCT-15 colon): 0.0376 µM; TGI (HCT-15 colon): > 9.25 µM; GI50 (HCC-2998 colon): 0.319 µM; TGI (HCC-2998 colon): > 9.25 µM; GI50 (K-562 leukemia): 0.0388 µM; TGI (K-562 leukemia): > 9.25 µM; GI50 (SN12C renal): 0.189 µM; TGI (SN12C renal): > 9.25 µM; GI50 (SK-OV-3 ovarian): 0.64 µM; TGI (SK-OV-3 ovarian): > 9.25 µM; GI50 (U251 CNS): 0.061 µM; TGI (U251 CNS): > 9.25 µM

Source: PubChem BioAssay (NCI)
